Measured values reported in patent US20090076075A1, “QUINOLINE DERIVATIVES” (priority 2006, published 2009).

Tests used:
KDR (VEGFR2) = target: T1, KDR (VEGFR2) (Homo sapiens, UniProt P35968); test: In vitro phospho-KDR ELISA assay (Test (c)); assay type: cell-based; settings: HUVECs stimulated with VEGF, read-out: IC50 versus phospho-tyrosine formation in KDR
T1 construct: phosphorylation of KDR expressed in human umbilical vein endothelial cells (HUVECs); host or cells: HUVEC
Protocol: (c) In Vitro Phospho-KDR ELISA Assay
This assay uses a conventional ELISA method to determine the ability of test compounds to inhibit phosphorylation of tyrosine in KDR (VEGFR2).
The cells were incubated overnight at 37° C. with 7.5% CO2 to allow adherence to the well surface. […] The plates were incubated at 37° C. for 2.5 hours.
Test compounds were prepared as 10 mM stock solutions in DMSO and serially diluted with DMSO as required. […] Aliquots (50 μl) of each resultant compound concentration were added to the cells in each well. […] The cells were incubated for 90 minutes at 37° C. with 7.5% CO2.
The resultant cells were stimulated with VEGF using the following procedure. […] A dilution of this stock solution into ‘serum free medium’ provided a 1000 ng/ml VEGF solution. Aliquots thereof (50 μl) were added to all wells. The cells were incubated at 37° C. with 7.5% CO2 for 5 minutes. […] The resultant tissue culture plates were shaken for 5 minutes at ambient temperature to ensure full lysis before being frozen on dry-ice and stored at −20° C. until required.
The antibody was diluted in PBS to a concentration of 8 μg/ml, aliquots (100 μl) were added to each well and the plates were stored at ambient temperature for 16 hours. The wells were washed 3 times (1 minute soak each time) with 300 μl per well of PBST. The wells were treated with PBS containing 1% filter-sterilised BSA (1% BSA/PBS; 200 μl) at ambient temperature for 1 hour and subsequently washed 3 times with 300 μl per well of PBST.
The tissue culture plates with frozen cell lysate were allowed to warm to 0° C. Aliquots (100 μl) of the HUVEC cell lysate were added and the ELISA plates were agitated at ambient temperature for 3 hours. The wells were washed 3 times with 300 μl per well of PBST.

PDGFRβ = target: T2, PDGFRβ (Homo sapiens, UniProt P09619); test: In vitro phospho-Tyr751 PDGFRβ ELISA assay (Test (b)); assay type: cell-based; settings: MG63 osteosarcoma cells stimulated with PDGFBB, read-out: IC50 versus phospho-Tyr751 formation in PDGFRβ
T2 construct: endogenous in cells; host or cells: MG63 osteosarcoma cells (ATCC)
Protocol: This assay uses a conventional ELISA method to determine the ability of test compounds to inhibit phosphorylation of tyrosine in PDGFRβ.
Aliquots (100 μl) of culture media were placed in the outer wells to minimise edge effects. The cells were incubated overnight at 37° C. with 7.5% CO2 to allow the cells to adhere to the wells.
Aliquots (3 μl) of each compound concentration were added to test medium (300 μl) to create a second dilution range. Aliquots (16 μl) of each resultant compound concentration were added to the cells in each well. “Maximum” control cells received a dilution of DMSO plus test medium only. “Minimum” control cells received a reference PDGFR inhibitor (16 μl). The cells were incubated for 90 minutes at 37° C. with 7.5% CO2.
The resultant cells were stimulated with PDGFBB using the following procedure. A lyophilised powder of PDGFBB, (Sigma-Aldrich; Catalogue No. P4306) was mixed with sterile water to provide a stock solution of 10 μg/ml of PDGFBB. […] Aliquots thereof (44 μl) were added to compound treated cells and to the “Maximum” control cells. The “Minimum” control cells received medium only. The cells were incubated at 37° C. with 7.5% CO2 for 5 minutes. […] The resultant tissue culture plates were shaken for 5 minutes at ambient temperature to ensure full lysis and then frozen at −20° C. until required.
Aliquots (50 μl) were added to each well and the plates were placed at 4° C. for 16 hours. The wells were washed 5 times (1 minute soak each time) with 300 μl per well of PBST. The wells were treated with 50 μl of 3% BSA in PBST at ambient temperature for 1 hour and subsequently washed twice with 300 μl per well of PBST.
The tissue culture plates with frozen cell lysate were allowed to warm to 0° C.

T1 sequence (P35968 20-1356): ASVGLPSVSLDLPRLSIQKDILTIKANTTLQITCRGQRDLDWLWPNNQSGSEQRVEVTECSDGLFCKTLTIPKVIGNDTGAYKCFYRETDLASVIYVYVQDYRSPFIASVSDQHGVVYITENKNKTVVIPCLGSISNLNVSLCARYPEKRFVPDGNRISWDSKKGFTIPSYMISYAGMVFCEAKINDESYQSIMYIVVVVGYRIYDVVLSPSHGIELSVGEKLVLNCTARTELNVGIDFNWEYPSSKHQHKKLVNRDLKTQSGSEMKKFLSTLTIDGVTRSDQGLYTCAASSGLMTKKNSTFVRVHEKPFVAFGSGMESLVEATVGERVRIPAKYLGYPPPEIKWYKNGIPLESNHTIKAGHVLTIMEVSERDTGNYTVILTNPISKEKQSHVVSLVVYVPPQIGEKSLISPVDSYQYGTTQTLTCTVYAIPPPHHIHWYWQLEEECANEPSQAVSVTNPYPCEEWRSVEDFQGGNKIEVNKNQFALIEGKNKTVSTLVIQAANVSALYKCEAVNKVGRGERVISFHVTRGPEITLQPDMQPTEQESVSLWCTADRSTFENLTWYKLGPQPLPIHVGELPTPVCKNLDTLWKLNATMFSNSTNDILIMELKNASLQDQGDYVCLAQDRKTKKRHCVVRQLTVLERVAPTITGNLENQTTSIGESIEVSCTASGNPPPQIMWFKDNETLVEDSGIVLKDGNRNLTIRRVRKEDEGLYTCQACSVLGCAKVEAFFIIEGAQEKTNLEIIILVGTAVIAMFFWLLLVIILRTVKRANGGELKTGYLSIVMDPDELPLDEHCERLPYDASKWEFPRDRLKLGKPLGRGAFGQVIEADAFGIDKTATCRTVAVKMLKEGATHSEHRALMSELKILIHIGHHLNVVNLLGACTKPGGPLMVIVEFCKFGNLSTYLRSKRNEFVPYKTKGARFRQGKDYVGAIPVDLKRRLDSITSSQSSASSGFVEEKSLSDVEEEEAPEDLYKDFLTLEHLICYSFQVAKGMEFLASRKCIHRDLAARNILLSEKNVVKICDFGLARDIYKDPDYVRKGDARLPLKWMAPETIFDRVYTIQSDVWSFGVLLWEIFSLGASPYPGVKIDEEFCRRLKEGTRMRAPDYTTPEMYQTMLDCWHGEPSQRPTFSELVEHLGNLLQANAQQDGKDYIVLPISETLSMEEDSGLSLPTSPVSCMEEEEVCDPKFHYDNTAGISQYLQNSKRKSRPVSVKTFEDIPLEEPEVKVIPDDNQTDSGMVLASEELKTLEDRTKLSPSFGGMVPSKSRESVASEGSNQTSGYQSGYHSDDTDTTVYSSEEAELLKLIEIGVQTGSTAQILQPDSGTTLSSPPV
T2 sequence (P09619 33-1106): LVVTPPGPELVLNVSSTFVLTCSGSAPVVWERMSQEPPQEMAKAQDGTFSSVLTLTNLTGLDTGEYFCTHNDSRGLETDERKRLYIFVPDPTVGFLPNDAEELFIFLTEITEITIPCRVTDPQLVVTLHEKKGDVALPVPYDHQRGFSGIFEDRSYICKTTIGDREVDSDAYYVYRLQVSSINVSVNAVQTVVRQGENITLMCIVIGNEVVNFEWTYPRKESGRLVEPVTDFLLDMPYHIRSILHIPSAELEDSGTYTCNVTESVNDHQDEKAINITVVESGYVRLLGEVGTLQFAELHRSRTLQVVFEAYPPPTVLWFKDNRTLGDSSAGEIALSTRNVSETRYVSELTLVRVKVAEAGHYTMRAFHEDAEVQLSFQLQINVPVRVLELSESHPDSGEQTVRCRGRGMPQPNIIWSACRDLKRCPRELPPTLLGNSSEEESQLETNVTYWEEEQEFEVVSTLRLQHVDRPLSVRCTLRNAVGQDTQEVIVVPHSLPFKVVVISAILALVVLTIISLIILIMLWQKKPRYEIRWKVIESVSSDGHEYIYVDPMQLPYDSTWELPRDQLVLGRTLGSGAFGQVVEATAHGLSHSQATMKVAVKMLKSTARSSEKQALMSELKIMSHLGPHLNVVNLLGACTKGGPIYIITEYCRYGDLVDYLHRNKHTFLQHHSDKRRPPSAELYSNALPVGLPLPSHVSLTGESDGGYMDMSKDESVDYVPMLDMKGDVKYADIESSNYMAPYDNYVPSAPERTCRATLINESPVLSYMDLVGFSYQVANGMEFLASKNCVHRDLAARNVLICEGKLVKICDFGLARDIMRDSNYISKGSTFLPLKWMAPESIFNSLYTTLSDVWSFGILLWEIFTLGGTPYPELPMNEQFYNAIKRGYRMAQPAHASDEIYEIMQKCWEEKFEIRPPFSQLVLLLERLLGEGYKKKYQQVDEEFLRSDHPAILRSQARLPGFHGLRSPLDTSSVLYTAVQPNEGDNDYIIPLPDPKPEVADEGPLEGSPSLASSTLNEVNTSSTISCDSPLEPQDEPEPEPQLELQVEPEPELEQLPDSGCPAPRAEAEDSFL

IC50 (KDR (VEGFR2)) | IC50 (PDGFRβ) | Structure (SMILES)
> 2000 nM | ~5 nM | COc1ccc2c(Oc3cnc(CC(=O)Nc4noc(C)c4C)c(OC)c3)ccnc2c1 [N-(4,5-dimethylisoxazol-3-yl)-2-[3-methoxy-5-(7-methoxyquinolin-4-yloxy)pyridin-2-yl]acetamide]
> 2000 nM | ~5 nM | COc1cc2nccc(Oc3cnc(CC(=O)Nc4n[nH]c(C)c4C)c(OC)c3)c2cc1OC [N-(4,5-dimethylpyrazol-3-yl)-2-[5-(6,7-dimethoxyquinolin-4-yloxy)-3-methoxypyridin-2-yl]acetamide]
> 2000 nM | ~5 nM | CCc1cc(NC(=O)Cc2ncc(Oc3ccnc4ccc(F)cc34)cc2OC)no1 [N-(5-ethylisoxazol-3-yl)-2-[5-(6-fluoroquinolin-4-yloxy)-3-methoxypyridin-2-yl]acetamide]
 | ~30 nM | CCc1cc(NC(=O)Cc2ccc(Oc3ccnc4cc(OC)c(C#N)cc34)cn2)n[nH]1 [Example 3, N-(5-ethylpyrazol-3-yl)-2-[5-(6-cyano-7-methoxyquinolin-4-yloxy)pyridin-2-yl]acetamide]
